Assay [1] concerns the target T1, Avi-KRAS G12C (1-169) GppNHp/RAF1 RBD-3×FLAG (52-151) (Homo sapiens, UniProt P01116, G12C).
T1 construct: Avi-KRAS G12C (1-169) GppNHp/RAF1 RBD-3×FLAG (52-151)
The assay is described as follows: Raf1 RBD-KRAS G12C-GppNHp disruption (protein:protein interaction HTRF assay). Format: biochemical. As for the experimental part:
A protein: protein (PPI) interaction Homogeneous Time Resolved Fluorescence (HTRF) assay was used to determine the effectiveness of compounds of the present disclosure in disrupting KRAS G12C protein and effector (RAF1 or PIK3CA) binding.
The HTRF assay used the following reagents and proteins: 50 nM Avi-KRAS G12C Q25A (1-169) GppNHp/3×FLAG-PI3K CA (157-299); 50 nM Avi-KRAS G12C (1-169) GppNHp/RAF1 RBD-3×FLAG (52-151); 35 nM Avi-PI3K RBD-3×FLAG; Assay Buffer: 50 mM Tris pH 7.5, 100 mM NaCl, 5 mM MgCl2, 0.1% BSA, 0.01% Tween 20, 10% DMSO; Bead Buffer: 50 mM Tris pH 7.5, 0.01% Tween 20; Assay volume: 20 μL (384 well plate-low volume format); and Compound titration: 30-0.02 μM, 3× dilution series.
The HTRF assay employed the following protocol:
Compounds were dispensed in assay plate (384-well, Grenier Bione #784075) using Echo (model 555) with dose response settings: 200 nL final volume, titration from 100 μM as a 10-point dilution series. KRAS proteins were prepared in assay buffer, and dispensed on plates, 5 μL per well, then incubated for 1 h at room temperature, with 700 rpm shaking. RAF1 RBD and PI3K RBD CA were prepared in assay buffer, dispensed onto plates, 5 μL per well, and then incubated for 1 h at room temperature, with 700 rpm shaking. Reagent mix was then prepared and dispensed on plates, 10 μL per well, and then incubated for 1 h at room temperature, with 700 rpm shaking.
Plates were analyzed on an Envision plate reader using the following setting: Excitation 320 nm, Bandwidth 75 nm; Emission 615 nm, Bandwidth 85 nm; Gain 100%; Flashes 100; Lag 60 μs. Data was reported as percentage of activity, with DMSO as 100%. Data was plotted and analyzed using Prism 8.

Assay [2] concerns pERK in NCI-H358 cells. The assay is described as follows: Cell-based pERK HTRF assay. Conditions: 30 min incubation, read-out: pERK in NCI-H358 cell inhibition IC50. As for the experimental part: pERK assays (Perkin Elmer) were used to determine the effectiveness of compounds of the present disclosure in disrupting KRAS G12C protein/effector signaling in cells.
On Day 1, cells (NCI-H358) were seeded into 96-well plates at 4×10^4 cells/well in complete growth media (RPMI, 10% FBS).
On Day 2, cells were treated with compounds at 0.25% DMSO. The source plate was created with compounds diluted in media at 5-fold the final assay concentration. The compounds were run in a 9-point concentration curve starting at 75 μM, with a 3-fold dilution between concentrations. 20 μL was transferred onto the cell plates (final volume in wells was 100 μL). Plates were harvested after 30 min incubation by aspirating media and adding kit-supplied 1× supplemented lysis buffer to all wells (75 μl per well). Plates were then placed on a plate shaker and incubated at 850 rpm for an additional 30 min.
Antibody mixture solution was prepared by diluting aliquoted d2 and Eu Cryptate antibodies 1:20 in kit supplied detection buffer, then mixed the diluted antibodies solutions (1:1 v:v). 4 μL of this solution was then added to a 384-well detection plate (Perkin Elmer; 6008230).
Samples were homogenized by pipetting up and down and then transferred (16 μL of cell lysates) from the 96-well cell culture plate to two wells of the HTRF 384-well detection plate containing the antibody solution. Plates were centrifuged (524 g for Imin) and allowed to incubate between 4 and 24 h at room temperature. Maximum signal is reached after 4 h incubation time and remains stable over a period of 24 hours. Therefore, readings can be made between 4 and 24 h of incubation. Plates were centrifuged again (524 g for Imin) and analyzed on the En Vision plate reader using the following settings: Excitation 320 nm, Bandwidth 75 nm; Emission 615 nm, Bandwidth 85 nm; Gain 100%; Flashes 100; Lag 60 μs.
(In general: TR-FRET usually uses a lanthanide donor and a delayed reading to cut background.)

The target in assay [3] is T2, GppNHp-loaded KRAS4b (amino acids 1-169) G12C/C118S protein (Homo sapiens, UniProt P01116, C118S/G12C).
T2 construct: KRAS4b (amino acids 1-169) G12C/C118S protein; made in house
The assay is described as follows: Covalent cysteine 12 modification by MALDI-TOF MS, GppNHp-loaded KRAS G12C. Format: binding. Conditions: 15 minutes reaction time point. As for the experimental part:
(§1) Reaction: 1 μM of GppNHp-, GTP-, or GDP-loaded KRAS4b (amino acids 1-169) G12C/C118S protein (produced in-house by Protein Expression Laboratory, FNLCR/Leidos Biomed) in 20 mM 4-(2-hydroxyethyl)-1-piperazineethanesulfonic acid (HEPES) buffer containing 150 mM NaCl, 1 mM MgCl2, pH 7.3 was prepared freshly before assay. Ten-μL aliquots of protein were dispensed onto low volume 384-well plate, then 375 nL DMSO, and 25 nL of tested compounds from 5 mM DMSO stocks were added to appropriate wells using ECHO 555 acoustic liquid handler (Labcyte Inc.). For each reaction/assay, three blanks were prepared by mixing 10 μL of protein solution with 400 nL DMSO. The contents of the wells were carefully mixed by aspiration, and then each plate was sealed with an adhesive cover, centrifuged at 2000 g for 1 minute, and kept in the dark at room temperature until 5 min, 15 min, 30 min, or 2 h collections.
(§2) Target pretreatment: Before each assay MALDI target (Bruker MPT 384 ground steel BC) was pre-treated by pipetting on each spot 0.75 μL of saturated sinapinic acid in acetonitrile (ACN).
(§3) Sample preparation: At collection time point, 2 μL of reaction mixtures were pipetted out into 20 μL MALDI matrix solution (saturated solution of sinapinic acid in 1:1 ACN:water solution containing 0.75% trifluoroacetic acid (TFA)) deposited on 384 well polypropylene plate. Resulting solution was mixed by aspiration, centrifuged at 2000 g for 1 minute, then 1 μL aliquots were dispensed on pre-treated MALDI target using Beckman Coulter Biomek FXP 96/384-Span-8 Laboratory Automation Workstation. Finally, the MALDI target was dried under mild vacuum to produce spots with fine crystalline structure.
(§4) Measurements: MALDI-TOF measurements were performed on a Bruker Daltonics rapiflex Tissuetyper TOF-TOF mass spectrometer using linear mode and mass range from 18.6 to 21.6 kDa. Detector gain was set to 3.3× (483 V), sample rate to 5 GS/s, real time smoothing to medium (175 MHz), laser smart beam pattern was set to: “MS Thin Layer M5”, and the laser frequency was 10000 Hz. Spectra were automatically collected using custom Auto Xecute method. Laser power was auto adjusted using fuzzy control. The peak selection range was set to be between 19000 and 21500 Da. Peak evaluation uses half width parameter set to be smaller than 40 Da for processed spectrograms (centroid peak detection; smoothed by SavitzkyGolay algorithm using 7 m/z width and 2 cycles; baseline was subtracted using median algorithm with flatness 1 and median level 0.01). Fuzzy control used Proteins/Oligonucleotides protocol with minimum half width 1/10 times above threshold. Up to 40000 satisfactory shots were collected in 10000 shot steps. Dynamic termination was implemented to finish data collection when peak signal/noise ratio was reaching value of 50.
(§5) Spectra processing: Spectra were smoothed by SavitzkyGolay algorithm using 7 m/z width and three cycles. Centroid peak detection algorithm was used with signal to noise threshold set to 6, relative intensity threshold 4%, peak width 10 m/z and median baseline subtraction using flatness of 1 and median level of 0.01. Peak intensity and area under the peak were evaluated and recorded for all peaks between 19,300 Da and 21,550 Da.
(§6) Calculation of percent modification: Percent modification was calculated as a ratio of peak height for protein modified by compound to sum of peak height of remaining protein plus peak height for protein modified by compound. If multiple modifications were observed each was calculated as a ratio of peak height for given modification versus sum of peak heights for all observed protein species. Data reported in Table 5 are from 15 minutes reaction time point.

Assay [4] concerns the target T3, GDP-loaded KRAS4b (amino acids 1-169) G12C/C118S protein (Homo sapiens, UniProt P01116, C118S/G12C).
T3 construct: KRAS4b (amino acids 1-169) G12C/C118S protein; made in house
Nature of the assay: Covalent cysteine 12 modification by MALDI-TOF MS, GDP-loaded KRAS G12C. Format: binding. Conditions: 15 minutes reaction time point. As for the experimental part: as §1, §2, §3, §4, §5, §6

Like-named read-outs stand apart in the source and are kept apart here.

The values that follow come from patent publication US20250188085A1, “COMPOSITIONS AND METHODS FOR INHIBITION OF RAS” (THERAS, INC., priority 2022, published 2025).

By IC50 is commonly meant the concentration needed to halve the response being measured.

Regarding `C=CC(=O)N1CC[C@@H](Oc2nc(OC[C@@]34CCCN3C[C@H](F)C4)nc3c(F)c(-c4ccc(F)c5sc(N)nc45)c(C(F)(F)F)cc23)[C@@H]1C` (atropisomer, axis not shown) [Compound 42], the figures for the concentration for half-maximal inhibition (IC50) in assay [1] and in assay [2] were greater than 20000 nM and greater than 1000 nM, respectively. The “GppNHp-KRAS G12C percent of modification” value in assay [3] is “D (percent of modification <10%)”. Further, the “GDP-KRAS G12C percent of modification” value in assay [4] is recorded as “D (percent of modification <10%)”.

`C=CC(=O)N1CC[C@@H](Oc2nc(OC[C@@H]3CC4(CC4)CN3C)nc3c(F)c(-c4ccc(F)c5sc(N)nc45)c(C(F)(F)F)cc23)C1` (atropisomer, axis not shown) [Compound 25]: the IC50 in assay [1] was 5000 to 20000 nM; in assay [2] it was greater than 1000 nM. Moreover, the “GppNHp-KRAS G12C percent of modification” value in assay [3] is “D (percent of modification <10%)”. Besides, the “GDP-KRAS G12C percent of modification” value in assay [4] is reported as “D (percent of modification <10%)”.

Turning to `C=CC(=O)N1CC[C@@H](Oc2nc(OC[C@@H]3CCCN3C)nc3c(F)c(-c4ccc(F)c5sc(N)nc45)c(C(F)(F)F)cc23)C1` [Compound 13], the IC50 in assay [1] was no more than 500 nM; in assay [2] (Homo sapiens, NCI-H358, 0.5 h), 100 to 1000 nM. Moreover, the “GppNHp-KRAS G12C percent of modification” value in assay [3] was “B (50≤percent of modification <70%)”. For the same molecule, the “GDP-KRAS G12C percent of modification” value in assay [4] was “A (percent of modification ≥70%)”.

In the case of `C=CC(=O)N1CC[C@@H](Oc2nc(OC[C@@H]3C[C@@H](OC)CN3C)nc3c(F)c(-c4ccc(F)c5sc(N)nc45)c(C(F)(F)F)cc23)C1` (single isomer, unassigned) [Compound 14], the half-inhibitory concentration (IC50) in assay [1] was no more than 500 nM; in assay [2], no more than 100 nM. Further, the “GppNHp-KRAS G12C percent of modification” value in assay [3] is “B (50≤percent of modification <70%)”. Further, the “GDP-KRAS G12C percent of modification” value in assay [4] is “A (percent of modification ≥70%)”.

As to `C=CC(=O)N1C[C@@H](F)[C@@H](Oc2nc(OC[C@@]34CCCN3C[C@H](F)C4)nc3c(F)c(-c4ccc(F)c5sc(N)nc45)c(C(F)(F)F)cc23)C1` [Compound 40, 1-((3S,4R)-3-((7-(2-amino-7-fluorobenzo[d]thiazol-4-yl)-8-fluoro-2-(((2R,7aS)-2-fluorotetrahydro-1H-pyrrolizin-7a (5H)-yl)methoxy)-6-(trifluoromethyl)quinazolin-4-yl)oxy)-4-fluoropyrrolidin-1-yl) prop-2-en-1-one], the 50% inhibitory concentration (IC50) was no more than 500 nM in assay [1] and no more than 100 nM in assay [2] (Homo sapiens, NCI-H358, 0.5 h). In assay [3], the “GppNHp-KRAS G12C percent of modification” value was “A (percent of modification ≥70%)”. For the same molecule, the “GDP-KRAS G12C percent of modification” value in assay [4] is listed as “A (percent of modification ≥70%)”.

Turning to `C=CC(=O)N1CC[C@@H](Oc2nc(OC[C@@]34CCCN3C[C@H](F)C4)nc3c(F)c(-c4ccc(F)c5sc(N)nc45)ncc23)C1` [Compound 43], the IC50 in assay [1] is 500 to 5000 nM; in assay [2] (Homo sapiens, NCI-H358, 0.5 h), greater than 1000 nM. Further, the “GppNHp-KRAS G12C percent of modification” value in assay [3] is reported as “C (10%≤modification <50%)”. Also, in assay [4], the “GDP-KRAS G12C percent of modification” value is “A (percent of modification ≥70%)”.

Take `C=CC(=O)N1CC[C@@H](Oc2nc(OC[C@]34CCCN3C[C@H](OC)C4)nc3c(F)c(-c4ccc(F)c5sc(N)nc45)c(C(F)(F)F)cc23)C1` (single isomer, unassigned) [Compound 31]: the half-maximal inhibitory concentration (IC50) in assay [1] was 500 to 5000 nM; in assay [2], greater than 1000 nM. The “GppNHp-KRAS G12C percent of modification” value in assay [3] is reported as “D (percent of modification <10%)”. Further, in assay [4], the “GDP-KRAS G12C percent of modification” value is recorded as “D (percent of modification <10%)”.

On to `C=CC(=O)N1CC(Oc2nc(OC[C@@H]3C[C@@H](OC)CN3C)nc3c(F)c(-c4ccc(F)c5sc(N)nc45)c(C(F)(F)F)cc23)C1` [Compound 26], for which the concentration for half-maximal inhibition (IC50) is 500 to 5000 nM in assay [1] and no more than 100 nM in assay [2] (Homo sapiens, NCI-H358, 0.5 h). For the same molecule, the “GppNHp-KRAS G12C percent of modification” value in assay [3] is on record as “C (10%≤modification <50%)”. In assay [4], the “GDP-KRAS G12C percent of modification” value is “A (percent of modification ≥70%)”.
